What was measured:
3T3-L1 pre-adipocytes = test: Inhibition of adipocyte differentiation and lipid accumulation, Oil Red O; assay type: cell-based; conditions: Mus musculus, 192 h; 3T3-L1, compound 1 μM, MDI-induced differentiation for 8 days, Oil Red O eluted, absorbance 544 nm; read-out: lipid accumulation rate
Description: 3T3-L1 cells were seeded in a 6-well plate at a density of […] cells per well. The cells were grown to 100% confluency in Dulbecco's modified Eagle's medium (DMEM) supplemented with 10% bovine calf serum (BCS; GIBCO). Two days after reaching 100% confluency, differentiation was induced with or without treatment with the indoline compound at a concentration of 1 μM in DMEM containing 10% fetal bovine serum (FBS; GIBCO) and MDI (520 μM methylisobutylxanthine (IBMX; Sigma-Aldrich), 1 μM dexamethasone (Sigma-Aldrich), and 5 μM insulin (GIBCO)). On day 3, the medium was replaced with DMEM containing 10% FBS and 5 μM insulin with or without the indoline compound, and then with a fresh identical medium every 2 days. After differentiation for 8 days, the culture medium was removed, and the cells were washed with PBS and then fixed with 10% formaldehyde for 1 hour. After removing the 10% formaldehyde, the cells were washed thoroughly with distilled water. After that, 60% isopropanol was added and immediately then removed. After washing with distilled water, lipid droplets were stained with an Oil Red O dye solution for 20 minutes and then washed with distilled water. The cells were counterstained with Mayer's hematoxylin. Oil Red O images were visualized using a bright-field microscope (Nikon TE-2000U). To quantify the accumulated lipids, Oil Red O was eluted by adding isopropanol, and absorbance was measured spectrophotometrically at 544 nm using a multi-plate reader.
As A3051 (KY19382) and A3334, self-developed and synthesized materials were used. As BIO, or GSK 3 Inhibitor IX, also known as 6-bromoindirubin-3′-oxime, HY-10580 was purchased commercially.
In FIG. 2, the undifferentiated group (Un Diff) refers to undifferentiated adipocytes, or preadipocytes that had not been induced to differentiate, and the differentiated group (Diff) refers to fully differentiated adipocytes.

[1] = target: CXXC5-Dvl interaction (PDZ domain of Dvl (dishevelled) protein / PTD-DBM-FITC); test: CXXC5-Dvl binding inhibition, competition of PTD-DBM-FITC on plate-bound Dvl PDZ domain; conditions: purified Dvl PDZ domain 5 μg/mL, 10 μM PTD-DBM-FITC, compounds 0.001-100 μM, FITC fluorescence
Description: 5 μg/mL of the purified PDZ domain ofDvl (dishevelled) protein was attached to the bottom of a 96-well black immunoplate and left in a chamber at 4° C. for one day. The next day, each well was washed with PBS and 10 μM PTD-DBM-FITC was added. After incubation at room temperature for 3 hours, each well was washed with PBS. Each well was treated with the indoline derivatives at various concentrations (100, 10, 1, 0.1, 0.01, and 0.001 μM) in 100 μL of PBS. After washing with a buffer, fluorescence was measured by FITC using a microplate reader. A competition binding curve showing the degree of CXXC5-Dvl PPI inhibition was constructed using the GraphPad Prism software, and the IC50 value was calculated. […] CK090), and the intermediate compound 5-cyanoindirubin as controls.

[2] = test system: β-catenin and CXXC5 in liver tissue; test: Liver immunohistochemistry of β-catenin and CXXC5 in MASH mice; assay type: in vivo, C57BL/6N mice; conditions: 25 mg/kg/day orally for 4 weeks
Description: (§1) Five-week-old wild-type male C57BL/6N mice were purchased from Orient Bio Co., Ltd. They were allowed to acclimate to the laboratory environment for one week. Mice weighing 18-20 g on average were used in the experiment. To ensure ethical and scientific validity and efficient management of animal experiments, the experiment was conducted with the approval of the Institutional Review Board (IACUC-A-202205-1472-01) of Severance Hospital, Yonsei University College of Medicine.
(§2) The mice were divided into a normal group (NCD) and a high-fat diet group (HFD). The normal group (NCD) was fed a normal chow diet (NCD, Teklad Global 18% protein rodent diet), and the high-fat diet group (HFD) was fed a high-fat diet (HFD, D12492) in which fat accounted for 60% of the total calories, for 8 weeks.
Mice induced with metabolic dysfunction-associated steatohepatitis (MASH) (hereinafter, referred to as MASH or MASH group) were prepared by administering CCl4 intraperitoneally twice a week for 4 weeks after feeding the high-fat diet (HFD) for 8 weeks. […]
The sections treated with the primary antibodies were washed with PBS and incubated with biotinylated anti-mouse (1:400; Dako) or anti-rabbit (1:400; Dako) secondary antibodies for 1 hour at room temperature. […] After the staining, images were taken and analyzed using a bright-field microscope (Nikon TE-2000U).

[3] = test system: mice induced with metabolic dysfunction-associated steatohepatitis (MASH); test: Liver morphology, H&E histology and MAFLD activity score in MASH mice; assay type: in vivo, C57BL/6N mice; conditions: 25 mg/kg/day orally for 4 weeks
Description: as §1
as §2, with “weeks. […]” for “weeks.”
After preparing the 7 groups, the animals were sacrificed using carbon dioxide and the liver tissues were extracted. […] Twenty randomly selected microscopic fields were photographed and analyzed using a Nikon bright-field optical microscope (Nikon TE-2000U).
After preparing the 7 groups, the animals were sacrificed using carbon dioxide and the liver tissues were extracted. After staining the liver tissues with H&E, scores were calculated using the MAFLD activity scoring system. […]

- IC50 [1]: 11.1 µM
SMILES: N#Cc1ccc2c(c1)/C(=C1/Nc3ccccc3C1=O)C(=O)N2 [5-cyanoindirubin]
- activity at 1 µM (3T3-L1 pre-adipocytes): 79%
- β-catenin expression in liver, immunohistochemical staining [2]: no significant difference from the MASH group (vehicle)
- steatosis / lipid droplets in liver tissue, H&E staining [3]: steatosis was also confirmed clearly
- fatty liver, morphological observation of liver tissue ([3]; vs MASH group (vehicle)): fatty liver was not alleviated significantly

Source: patent US20260250247A1, “NOVEL INDOLINE DERIVATIVE AND USE THEREOF” (CK REGEON INC., priority 2023, published 2026)
